Data published in patent publication US20060084691A1, “Combined treatment with bortezomib and an epidermal growth factor receptor kinase inhibitor” (priority 2004, published 2006).
Structures can show the parent of a compound that is named as a salt.

What was measured:
Type in all cases: cell-based, human
[1] = tested on: EGF-induced EGFR-phosphorylation; test: EGF-induced EGFR phosphorylation in sensitive and resistant cells; conditions: both sensitive and resistant cells
Description: Cells were scraped from the culture, washed twice with PBS, and then suspended in 60-100 μL of Western blot lysis buffer containing 50 mM Tris-HCl (pH 7.5), 250 mM NaCl, 1 mM EDTA, 1 mM EGTA, 1 mM NaF, 1 mM phenylmethylsulfonyl fluoride, 1 mM DTT, 20 μg/mL leupeptin, 20 μg/mL aprotinin, 0.1% Triton X-100 and 1% SDS at 0-4° C. for 15 min. […] After electrophoresis, protein blots were transferred to a nitrocellulose membrane. The membrane was blocked with 5% nonfat milk powder in TBST and incubated overnight with the corresponding primary antibodies at 4° C. After washing three times with TBST, the membrane was incubated at room temperature for 1 h with horseradish peroxidase-conjugated secondary antibody diluted with TBST (1:1000). The detected protein signals were visualized by an enchanced cheiluminescence reaction system (Amersham, Arlington Heights, Ill.).

[2] = tested on: H322; test: MTT cytotoxicity assay, H322; conditions: H322, 72 h
[3] = tested on: H1299; test: MTT cytotoxicity assay, H1299; conditions: H1299, 72 h
[4] = tested on: A549; test: MTT cytotoxicity assay, A549; conditions: A549, 72 h
[5] = tested on: H358; test: MTT cytotoxicity assay, H358; conditions: H358, 72 h
[6] = tested on: ubiquitinated p53 in A549 cells; test: p53 expression by western blot; conditions: A549 cells with wild type p53, single agent
Description: Cells were scraped from the culture, washed twice with PBS, and then suspended in 60-100 μL of Western blot lysis buffer containing 50 mM Tris-HCl (pH 7.5), 250 mM NaCl, 1 mM EDTA, 1 mM EGTA, 1 mM NaF, 1 mM phenylmethylsulfonyl fluoride, 1 mM DTT, 20 μg/mL leupeptin, 20 μg/mL aprotinin, 0.1% Triton X-100 and 1% SDS at 0-4° C. for 15 min. After centrifugation at 1500× g for 10 min at 0° C., the supernatants were collected, and the proteins were separated on 10% SDS-PAGE. After electrophoresis, protein blots were transferred to a nitrocellulose membrane. The membrane was blocked with 5% nonfat milk powder in TBST and incubated overnight with the corresponding primary antibodies at 4° C. After washing three times with TBST, the membrane was incubated at room temperature for 1 h with horseradish peroxidase-conjugated secondary antibody diluted with TBST (1:1000). The detected protein signals were visualized by an enchanced cheiluminescence reaction system (Amersham, Arlington Heights, Ill.).
A549 cells with wild type p53 were exposed to either bortezomib or erlotinib alone, or in combination concomitantly or sequentially 24-hr apart, and p53 expression was assessed by western blot.

C#Cc1cccc(Nc2ncnc3cc(OCCOC)c(OCCOC)cc23)c1 [erlotinib HCl, [6,7-bis(2-methoxyethoxy)-4-quinazolin-4-yl]-(3-ethynylphenyl) amine]
EGF-induced EGFR-phosphorylation [1]: inhibits
Sensitivity (cytotoxicity) [2]: sensitive
Sensitivity (cytotoxicity) [3]: resistant
Sensitivity (cytotoxicity) [4]: resistant
Sensitivity (cytotoxicity) [5]: sensitive

CC(C)C[C@H](NC(=O)[C@H](Cc1ccccc1)NC(=O)c1cnccn1)B(O)O [bortezomib]
p53 expression (western blot) [6]: accumulation of ubiquitinated p53
